Several values for one entry are separate records, joined by “and”; a condition that tells them apart may be missing. Equal values may be shown once.
Test system: icHep (PXB-cells on claudin-1, -2, -3, -9 coated Transwell permeable support)
Assay: icHep permeation assay (sinusoidal to bile side) to estimate drug biliary excretion clearance
Conditions: for In vitro CLbile, app: single replicates; for Predicted in vivo CLbile, int, Mean: mean of 3; for In vitro CLbile, int / Predicted in vivo CLbile, int: single replicate; for Biliary excretion clearance, in vivo, predicted, CLbile, int: scaled up from in vitro CLbile,int, mean ± S.D., n = 3
[1] = Control, block with icHep (HUM181001B)
[2] = Control, block with icHep (JFC)

| SMILES | In vitro CLbile, app, Mean [1] [ul/min/106 cells] | In vitro CLbile, app [1] | In vitro CLbile, app, Mean [2] [ul/min/106 cells] | In vitro CLbile, app [2] | Predicted in vivo CLbile, int, Mean (icHep (HUM181001B)) [mL/min] | In vitro CLbile, int (icHep (HUM181001B)) | Predicted in vivo CLbile, int (icHep (HUM181001B)) | In vitro CLbile, app, Mean (icHep (HUM181001B)) [ul/min/106 cells] | Biliary excretion clearance, in vivo, predicted, CLbile, int (icHep (HUM181001B)) [mL/min] | In vitro CLbile, app (icHep (HUM181001B)) | Predicted in vivo CLbile, int, Mean (icHep (JFC)) [mL/min] | In vitro CLbile, int (icHep (JFC)) | Predicted in vivo CLbile, int (icHep (JFC)) | In vitro CLbile, app, Mean (icHep (JFC)) [ul/min/106 cells] | Biliary excretion clearance, in vivo, predicted, CLbile, int (icHep (JFC)) [mL/min] | In vitro CLbile, app (icHep (JFC)) |
| --- | --- | --- | --- | --- | --- | --- | --- | --- | --- | --- | --- | --- | --- | --- | --- | --- |
| CN/C(=N/CCSCc1nc[nH]c1C)NC#N [Cimetidine, cimetidine] | 0.585 | 0.596 ul/min/106 cells and 0.590 ul/min/106 cells and 0.570 ul/min/106 cells | 1.14 | 1.06 ul/min/106 cells and 1.22 ul/min/106 cells and 1.15 ul/min/106 cells | 97.8 | 0.316 ul/min/106 cells and 0.409 ul/min/106 cells and 0.633 ul/min/106 cells | 68.3 mL/min and 88.4 mL/min and 137 mL/min | 1.04 | 97.8 ± 35.1 | 0.913 ul/min/106 cells and 1.00 ul/min/106 cells and 1.20 ul/min/106 cells | 188 | 0.810 ul/min/106 cells and 1.04 ul/min/106 cells and 0.756 ul/min/106 cells | 175 mL/min and 225 mL/min and 163 mL/min | 2.01 | 188 ± 32.8 | 1.87 ul/min/106 cells and 2.26 ul/min/106 cells and 1.90 ul/min/106 cells |
| C[C@H]1O[C@@H](O[C@H]2[C@@H](O)C[C@H](O[C@H]3[C@@H](O)C[C@H](O[C@H]4CC[C@@]5(C)[C@H](CC[C@@H]6[C@@H]5C[C@@H](O)[C@]5(C)[C@@H](C7=CC(=O)OC7)CC[C@]65O)C4)O[C@@H]3C)O[C@@H]2C)C[C@H](O)[C@@H]1O [Digoxin, digoxin] | – | – | – | – | – | – | 242 mL/min and 175 mL/min | – | – | – | – | – | 71.3 mL/min and 159 mL/min and 72.7 mL/min | – | – | – |
| CC[C@H]1OC(=O)[C@H](C)[C@@H](O[C@H]2C[C@@](C)(OC)[C@@H](O)[C@H](C)O2)[C@H](C)[C@@H](O[C@@H]2O[C@H](C)C[C@H](N(C)C)[C@H]2O)[C@](C)(O)C[C@@H](C)C(=O)[C@H](C)[C@@H](O)[C@]1(C)O [Erythromycin, erythromycin] | 0.624 | 0.611 ul/min/106 cells and 0.632 ul/min/106 cells and 0.630 ul/min/106 cells | – | 1.41 ul/min/106 cells and 1.36 ul/min/106 cells and 1.35 ul/min/106 cells | 171 | 0.865 ul/min/106 cells and 0.795 ul/min/106 cells and 0.720 ul/min/106 cells | 187 mL/min and 172 mL/min and 155 mL/min | – | 171 ± 15.6 | 1.48 ul/min/106 cells and 1.43 ul/min/106 cells and 1.35 ul/min/106 cells | 158 | 0.650 ul/min/106 cells and 0.762 ul/min/106 cells and 0.784 ul/min/106 cells | 140 mL/min and 165 mL/min and 169 mL/min | – | 158 ± 15.6 | 2.06 ul/min/106 cells and 2.13 ul/min/106 cells |
| CN(Cc1cnc2nc(N)nc(N)c2n1)c1ccc(C(=O)N[C@@H](CCC(=O)O)C(=O)O)cc1 [Methotrexate, methotrexate] | 1.51 | 1.65 ul/min/106 cells and 1.43 ul/min/106 cells and 1.44 ul/min/106 cells | 1.37 | 1.41 ul/min/106 cells and 1.36 ul/min/106 cells and 1.35 ul/min/106 cells | 157 | 0.425 ul/min/106 cells and 0.942 ul/min/106 cells and 0.808 ul/min/106 cells | 91.9 mL/min and 203 mL/min and 175 mL/min | 2.23 | 157 ± 57.9 | 2.08 ul/min/106 cells and 2.37 ul/min/106 cells and 2.25 ul/min/106 cells | 241 | 1.21 ul/min/106 cells and 1.27 ul/min/106 cells and 0.865 ul/min/106 cells | 261 mL/min and 274 mL/min and 187 mL/min | 2.11 | 241 ± 46.9 | 2.06 ul/min/106 cells and 2.12 ul/min/106 cells and 2.13 ul/min/106 cells |
| CCOc1ccc2ccccc2c1C(=O)N[C@@H]1C(=O)N2[C@@H]1SC(C)(C)[C@@H]2C(=O)O [Nafcillin, nafcillin] | 0.838 | 0.848 ul/min/106 cells and 0.836 ul/min/106 cells and 0.830 ul/min/106 cells | 1.10 | 0.724 ul/min/106 cells and 1.28 ul/min/106 cells and 1.30 ul/min/106 cells | 232 | 0.964 ul/min/106 cells and 1.03 ul/min/106 cells and 1.23 ul/min/106 cells | 208 mL/min and 222 mL/min and 266 mL/min | 1.91 | 232 ± 30.1 | 1.81 ul/min/106 cells and 1.86 ul/min/106 cells and 2.06 ul/min/106 cells | 479 | 3.37 ul/min/106 cells and 1.82 ul/min/106 cells and 1.47 ul/min/106 cells | 727 mL/min and 394 mL/min and 316 mL/min | 3.32 | 479 ± 218 | 4.09 ul/min/106 cells and 3.10 ul/min/106 cells and 2.77 ul/min/106 cells |
| CC[C@]1(O)C[C@H]2CN(CCc3c([nH]c4ccccc34)[C@@](C(=O)OC)(c3cc4c(cc3OC)N(C=O)[C@H]3[C@@](O)(C(=O)OC)[C@H](OC(C)=O)[C@]5(CC)C=CCN6CC[C@]43[C@@H]65)C2)C1 [Vincristine, vincristine] | 0.159 | 0.124 ul/min/106 cells and 0.154 ul/min/106 cells and 0.199 ul/min/106 cells | 0.205 | 0.186 ul/min/106 cells and 0.220 ul/min/106 cells and 0.208 ul/min/106 cells | 27.6 | 0.176 ul/min/106 cells and 0.118 ul/min/106 cells and 0.0898 ul/min/106 cells | 38.0 mL/min and 25.6 mL/min and 19.4 mL/min | 0.287 | 27.6 ± 9.46 | 0.300 ul/min/106 cells and 0.273 ul/min/106 cells and 0.289 ul/min/106 cells | 37.3 | 0.159 ul/min/106 cells and 0.230 ul/min/106 cells and 0.129 ul/min/106 cells | 34.3 mL/min and 49.7 mL/min and 27.8 mL/min | 0.377 | 37.3 ± 11.2 | 0.345 ul/min/106 cells and 0.450 ul/min/106 cells and 0.337 ul/min/106 cells |

From PMC10444810, “Induction of open-form bile canaliculus formation by hepatocytes for evaluation of biliary drug excretion” (Communications Biology, 2023)
